This note sets out measurements from article PMC7606276, “The Antibacterial Effects of New N-Alkylpyridinium Salts on Planktonic and Biofilm Bacteria” (Frontiers in Microbiology, 2020).

Structures are written as SMILES.

Assay [1] deals with CHO-K1 cells. Nature of the assay: MTT cell viability assay on CHO-K1 cells. The class given is cell-based, Chinese hamster. Conditions: Cricetulus griseus, 24 h exposure. As to the method:
Standard MTT assay (3-(4,5-dimethylthiazol-2-yl)-2,5-diphenyltetrazolium bromide; Sigma-Aldrich, Prague, Czechia) was used according to the manufacturer’s protocol on the CHO-K1 (Chinese hamster ovary, ECACC, Salisbury, United Kingdom) in order to compare the effect of different compounds within the series. The cells were cultured according to ECACC recommended conditions and seeded in a density of 8000 per well as described previously ([Soukup et al., 2020]). […] Thereafter, CHO-K1 cells were exposed to two-fold diluted series A, B, C or ten-fold diluted sodium hypochlorite for 24 h. Then the medium was replaced by a medium containing 0.5 mg/ml of MTT and the cells were allowed to produce formazan for approximately 3 h under surveillance. Thereafter, the medium with MTT was removed and crystals of formazan were dissolved in DMSO (100 μl/well). Cell viability was assessed spectrophotometrically by the amount of formazan produced. The absorbance was measured at 570 nm on Synergy HT (BioTek, Winooski, VT, United States). IC50 (half maximal inhibitory concentration) was then calculated from the control – subtracted triplicates using non-linear regression (four parameters) by GraphPad Prism 5.03 or 7.03 software (GraphPad Software Inc., San Diego, CA, United States). Final IC50 and SEM (standard error of the mean) values were obtained as a mean of three independent measurements.
On the technique in general: Tetrazolium assays rely on reduction of a dye to a coloured formazan, in cell work by metabolically active cells.

For assay [2], the system named is E. faecalis plankton and biofilm. The assay is described as follows: Comparison of effectiveness in plankton and biofilm (matched fraction of dead cells). The class given is cell-based, Enterococcus faecalis. Conditions: high density E. faecalis suspension 2.4 × 10^9 CFU/mL. An excerpt:
In plankton suspensions we were able to reach bactericidal concentration for all tested QACs. The situation was quite different in biofilms. The concentrations that work in plankton were not sufficient to kill all bacteria in the biofilm. […] Unfortunately, due to the solubility limit, it was not possible to increase the concentration of the QACs to concentrations that would kill all bacteria in the biofilm. Nevertheless, we can compare the effectiveness in plankton and biofilm if we decrease the concentration of biocide in the plankton to match the fraction of the dead cells in the biofilm. […] The experiment was performed at high density E. faecalis suspensions (2.4 × 10^9 CFU/mL) to mimic the high density of bacteria in a biofilm. By comparing QACs effectiveness at high initial planktonic densities we have largely eliminated the effect of the bacterial density and estimated the effect of biofilm induced changes on QACs sensitivity. One has to be careful, however, as bacterial cells in plankton differ from biofilm not only in cell density but also in cell metabolism and extracellular matrix viscoelasticity. To match the fraction of dead cells in the biofilm, the 10-fold dilution of compounds A14 and B14 were needed, whereas only 4-fold dilution of compound C14 was required. […] The activity of QACs in biofilms relative to plankton was two orders of magnitude […] than usually reported in the literature. Although our biofilms were mature, they were relatively thin (up to 10 μm) which may explain the relatively high efficiency of the QACs against biofilms. Similar observations have been made for S. mutans biofilms, where biofilm cells were only 8 times less susceptible to QACs compared to plankton bacteria ([López Pérez et al., 2017]).

By IC50 is commonly meant the midpoint of a concentration-inhibition curve. As to `CCCCCCCCCCCCCC[n+]1ccccc1` [Compound A14], in assay [1], the IC50 came out at 24.7 ± 0.2 µM. In assay [2], the “dilution in plankton needed to match the fraction of dead cells in the biofilm” value came to 10 fold.
